Source: patent US20040115160A1, “Quaternary ammonium esters for disinfection and preservation” (priority 2002, published 2004)
Like-named read-outs stand apart in the source and are kept apart here.

Tests used:
Test in all cases: Stand-alone biocidal test without organic soil
Type in all cases: cell-based
[1] = tested on: Candida albicans (ATCC 10231); conditions: Candida albicans, read-out: Stand-alone biocidal result (microbial log reduction) C. albicans
Procedure: (§1) A test was conducted to study the microbiocidal efficacy of a solution containing a quaternary ammonium ester of the present invention employing borate buffered saline (BBS). The antimicrobial efficacy of each of the various compositions for the chemical disinfection of contact lenses was evaluated. Microbial challenge inoculums were prepared using Pseudomonas aeruginosa (ATCC 9027), Staphylococcus aureus (ATCC 6538), Serratia marcescens (ATCC 13880), Candida albicans (ATCC 10231) and Fusarium solani (ATCC 36031). The test organisms were cultured on appropriate agar and the cultures were harvested using sterile DPBST (Dulbecco's Phosphate Buffered Saline plus 0.05 percent weight/volume polysorbate 80) or a suitable diluent and transferred to a suitable vessel. Spore suspensions were filtered through sterile glass wool to remove hyphal fragments. Serratia marcescens, as appropriate, was filtered through a 1.2 mμ filter to clarify the suspension. After harvesting, the suspension was centrifuged at no more than 5000×g for a maximum of 30 minutes at 20 to 25° C. The supernatant was poured off and resuspended in DPBST or other suitable diluent. The suspension was centrifuged a second time, and resuspended in DPBST or other suitable diluent. All challenge bacterial and fungal cell suspensions were adjusted with DPBST or other suitable diluent to 1×10^7 to 1×10^8 cfu/ml. The appropriate cell concentration may be estimated by measuring the turbidity of the suspension, for example, using a spectrophotometer at a preselected wavelength, for example 490 nm. One tube was prepared containing a minimum of 10 ml of test solution per challenge organism. Each tube of the solution to be tested was inoculated with a suspension of the test organism sufficient to provide a final count of 1×10^5 to 1×10^6 cfu/ml, the volume of the inoculum not exceeding 1 percent of the sample volume. Dispersion of the inoculum was ensured by vortexing the sample for at least 15 seconds. The inoculated product was stored at 10 to 25° C. Aliquots in the amount of 1.0 ml were taken of the inoculated product for determination of viable counts after certain time periods of disinfection. The time points for the bacteria were, for example, 1, 2, 3 and 4 hours when the proposed regimen soaking time was four hours. Yeast and mold were tested at an additional timepoint of 16 hours (4 times the regimen time). The suspension was mixed well by vortexing vigorously for at least 5 seconds. The 1.0 ml aliquots removed at the specified time intervals were subjected to a suitable series of decimal dilutions in validated neutralizing media. The suspensions were mixed vigorously and incubated for a suitable period of time to allow for neutralization of the microbial agent at room temperature. The viable count of organisms was determined in appropriate dilutions by preparation of triplicate plates of trypticase soy (TSA) agar for bacteria and Sabouraud dextrose agar (SDA) for mold and yeast. The bacterial recovery plates were incubated at 30 to 35° C. for two to four days. The yeast was incubated at 20 to 30° C. for two to four days and mold recovery plates were incubated at 20 to 25° C. for three to seven days. The average number of colony forming units was determined on countable plates. Countable plates refer to 30 to 300 cfu/plates for bacteria and yeast, and 8 to 80 cfu/plate for mold except when colonies are observed only for the 10^0 or 10^−1 dilution plates. The microbial reduction was then calculated at the specified time points. […] Following inoculation in a validated neutralizing broth and incubation for an appropriate period of time, the inoculum control must be between 1.0×10^5 to 1.0×10^6 cfu/ml. […]

[2] = tested on: Pseudomonas aeruginosa (ATCC 9027); conditions: 25 ppm in BBS, without organic soil
Procedure: as §1

[3] = tested on: Staphylococcus aureus (ATCC 6538); conditions: 25 ppm in BBS, without organic soil
Procedure: as §1

[4] = tested on: Fusarium solani (ATCC 36031); conditions: Fusarium solani, read-out: Stand-alone biocidal result (microbial log reduction) F. solani
Procedure: as §1

[5] = tested on: Serratia marcescens (ATCC 13880); conditions: 25 ppm in BBS, without organic soil
Procedure: as §1

In the case of `CCCCCCCCCCCCCC(=O)OCCC[N+](C)(C)Cc1ccccc1` [Compound 1, N-myristoyloxypropyl-N-benzyl-N,N-dimethylammonium chloride], the log reduction at 25 ppm ([1]; ATCC10231, 1 h) is reported as 3.6, the log reduction at 25 ppm ([1]; ATCC10231, 4 h) is reported as over 4.8 and the “Stand-alone biocidal result (microbial log reduction) P. aeruginosa” value ([2]; 1 hr.) is reported as over 4.7. The “Stand-alone biocidal result (microbial log reduction) P. aeruginosa” value ([2]; 4 hr.) was over 4.7, the “Stand-alone biocidal result (microbial log reduction) S. aureus” value ([3]; 1 hr.) was 4.6 and the “Stand-alone biocidal result (microbial log reduction) S. aureus” value ([3]; 4 hr.) was over 4.8. For the same compound, the log reduction at 25 ppm ([4]; ATCC36031, 1 h) was 4, the log reduction at 25 ppm ([4]; ATCC36031, 4 h) was 4.2 and the “Stand-alone biocidal result (microbial log reduction) S. marcescens” value ([5]; 1 hr.) was 4.8. For the same compound, the “Stand-alone biocidal result (microbial log reduction) S. marcescens” value ([5]; 4 hr.) was over 4.8.
